SMILES strings stand for the structures. pEC50: −log10 of the molar value. Counter-ions that a name gives are not always drawn. Like-named read-outs stand apart in the source and are kept apart here.

In the assay the test system is HIV-1 NL4-3 strain. Kind of assay: Evaluation of antiviral activity: acute infection system of MT-4 cell with HIV-1 NL4-3 strain. In kind it is cell-based.
The mark [1] stands for this setting: Human immunodeficiency virus 1, NL43, MT4, 120 h, read-out: antiviral activity (EC50), MT-4 cells infected with HIV-1 NL4-3 strain (MOI 0.05), cultured 5 days, Cell Titer-Glo.
[2] abbreviates: Human immunodeficiency virus 1, NL43, MT4, 120 h, antiviral activity, MT-4 cells infected with HIV-1 NL4-3 (MOI 0.05), 5 days culture, Cell Titer-Glo luminescence, read-out: EC50.
The mark [3] stands for this setting: Human immunodeficiency virus 1, NL43, MT4, 120 h, MT-4 cells infected with HIV-1 NL4-3 strain (MOI 0.05), cultured 5 days, Cell Titer-Glo, read-out: antiviral activity (EC50).
Where [4] appears, read: Human immunodeficiency virus 1, NL43, MT4, 120 h, antiviral activity, MT-4 cells infected with HIV-1 NL4-3 (MOI 0.05), 5 days culture, Cell Titer-Glo luminescence.

For the compound `CN1C[C@]2(C[C@H]2CO)n2cc(C(=O)NCc3cccc(Cl)c3F)c(=O)c(O)c2C1=O` [Example T23, (1R,2R)-N-(3-chloro-2-fluorobenzyl)-9′-hydroxy-2-(hydroxymethyl)-2′-methyl-1′,8′-dioxo-1′,2′,3′,8′-tetrahydrospiro[cyclopropane-1,4′-pyrido[1,2-a]pyrazine]-7′-carboxamide hydrochloride], under setting [1], the pEC50 was 8.02.
As for `CCN1C[C@]2(C[C@@H](OCc3ccccc3)C2)n2cc(C(=O)NCc3ccc(F)cc3F)c(=O)c(O)c2C1=O` [Example S15, trans-3-(benzyloxy)-N-(2,4-difluorobenzyl)-2′-ethyl-9′-hydroxy-1′,8′-dioxo-1′,2′,3′,8′-tetrahydrospiro[cyclobutane-1,4′-pyrido[1,2-a]pyrazine]-7′-carboxamide hydrochloride], the pEC50 under setting [2] was 8.16.
Regarding `COC[C@H]1C[C@]2(CN(C)C(=O)c3c([O][Ca][O]c4c5n(cc(C(=O)NCc6cccc(Cl)c6F)c4=O)[C@]4(CN(C)C5=O)C[C@H](COC)C4)c(=O)c(C(=O)NCc4cccc(Cl)c4F)cn32)C1` [Example 30, Monocalcium bis[7′-(3-chloro-2-fluorobenzylcarbamoyl)-cis-3-(methoxymethyl)-2′-methyl-1′,8′-dioxo-1′,2′,3′,8′-tetrahydrospiro[cyclobutane-1,4′-pyrido[1,2-a]pyrazin]-9′-olate]], the negative logarithm of the EC50 (pEC50) under setting [3] is 8.96.
For `COC[C@H]1C[C@@]12CN(C(C)C)C(=O)c1c(O)c(=O)c(C(=O)NCc3ccc(F)cc3F)cn12` [Example 10, (1S,2S)—N-(2,4-difluorobenzyl)-9′-hydroxy-2′-isopropyl-2-(methoxymethyl)-1′,8′-dioxo-1′,2′,3′,8′-tetrahydrospiro[cyclopropane-1,4′-pyrido[1,2-a]pyrazine]-7′-carboxamide hydrochloride], the pEC50 under setting [4] was 8.44.
`CCN1C[C@@]2(C[C@@H]2COC)n2cc(C(=O)NCc3cccc(C(F)(F)F)c3F)c(=O)c(O)c2C1=O` [Example T27, (1S,2S)-2′-ethyl-N-(2-fluoro-3-(trifluoromethyl)benzyl)-9′-hydroxy-2-(methoxymethyl)-1′,8′-dioxo-1′,2′,3′,8′-tetrahydrospiro[cyclopropane-1,4′-pyrido[1,2-a]pyrazine]-7′-carboxamide]: under “MT-4 cells infected with HIV-1 NL4-3 strain (MOI 0.05), cultured 5 days, Cell Titer-Glo, read-out: antiviral activity (EC50)”, the negative-log EC50 (pEC50) was 7.01.
`CCC(=O)Oc1c2n(cc(C(=O)NCc3cccc(Cl)c3F)c1=O)[C@]1(CN(C)C2=O)C[C@H](OC)C1` [Example S65, 7′-(3-chloro-2-fluorobenzylcarbamoyl)-cis-3-methoxy-2′-methyl-1′,8′-dioxo-1′,2′,3′,8′-tetrahydrospiro[cyclobutane-1,4′-pyrido[1,2-a]pyrazin]-9′-yl propionate]: the pEC50 under setting [3] is 9.00.
Regarding `COC[C@H]1C[C@]2(CN(C)C(=O)c3c(OC(C)=O)c(=O)c(C(=O)NCc4cccc(Cl)c4F)cn32)C1` [Example 37, 7′-(3-chloro-2-fluorobenzylcarbamoyl)-cis-3-(methoxymethyl)-2′-methyl-1′,8′-dioxo-1′,2′,3′,8′-tetrahydrospiro[cyclobutane-1,4′-pyrido[1,2-a]pyrazin]-9′-yl acetate], under setting [3], the negative-log EC50 (pEC50) is 9.15.
With `CC(C)N1C[C@]2(C[C@H](OS(C)(=O)=O)C2)n2cc(C(=O)NCc3ccc(F)cc3F)c(=O)c(O)c2C1=O` [Example S35, 7′-(2,4-difluorobenzylcarbamoyl)-9′-hydroxy-2′-isopropyl-1′,8′-dioxo-1′,2′,3′,8′-tetrahydrospiro[cyclobutane-1,4′-pyrido[1,2-a]pyrazine]- cis-3-yl methanesulfonate hydrochloride], the pEC50 under setting [3] is 8.14.
Consider `CCN1C[C@]2(C[C@H]2COC)n2cc(C(=O)NCc3ccc(F)cc3F)c(=O)c(O)c2C1=O` [Example T9, (1R,2R)-N-(2,4-difluorobenzyl)-2′-ethyl-9′-hydroxy-2-(methoxymethyl)-1′,8′-dioxo-1′,2′,3′,8′-tetrahydrospiro[cyclopropane-1,4′-pyrido[1,2-a]pyrazine]-7′-carboxamide hydrochloride], for which the pEC50 under setting [1] was 8.24.
As for `COC[C@@H]1C[C@]12CN(C(C)C)C(=O)c1c(O)c(=O)c(C(=O)NCc3cccc(Cl)c3F)cn12` [Example T6, (1R,2R)-N-(3-chloro-2-fluorobenzyl)-9′-hydroxy-2′-isopropyl-2-(methoxymethyl)-1′,8′-dioxo-1′,2′,3′,8′-tetrahydrospiro[cyclopropane-1,4′-pyrido[1,2-a]pyrazine]-7′-carboxamide hydrochloride], the pEC50 under setting [1] was 8.42.
As for `CO[C@H]1C[C@]2(Cn3cc(C(=O)NCc4ccc(F)cc4F)c(=O)c(O)c3C(=O)N2C(C)C)C1` [Example S53, N-(2,4-difluorobenzyl)-9′-hydroxy-2′-isopropyl-cis-3-methoxy-1′,8′-dioxo-1′,2′,4′,8′-tetrahydrospiro[cyclobutane-1,3′-pyrido[1,2-a]pyrazine]-7′-carboxamide hydrochloride], the pEC50 under setting [3] is 8.00.
Take `COC[C@H]1C[C@]12CN(C(C)C)C(=O)c1c(O)c(=O)c(C(=O)NCc3ccc(F)cc3F)cn12` [Example 14, (1R,2S)—N-(2,4-difluorobenzyl)-9′-hydroxy-2′-isopropyl-2-(methoxymethyl)-1′,8′-dioxo-1′,2′,3′,8′-tetrahydrospiro[cyclopropane-1,4′-pyrido[1,2-a]pyrazine]-7′-carboxamide]: under setting [2], the pEC50 is 8.04.
Turning to `CCN1C[C@@]2(C[C@@H]2CO)n2cc(C(=O)NCc3cccc(Cl)c3F)c(=O)c(O)c2C1=O` [Example T18, (1S,2S)-N-(3-chloro-2-fluorobenzyl)-2′-ethyl-9′-hydroxy-2-(hydroxymethyl)-1′,8′-dioxo-1′,2′,3′,8′-tetrahydrospiro[cyclopropane-1,4′-pyrido[1,2-a]pyrazine]-7′-carboxamide hydrochloride], the negative logarithm of the EC50 (pEC50) under setting [1] was 8.00.
Under setting [4], `CC(C)N1C[C@]2(C[C@H]2CS(C)(=O)=O)n2cc(C(=O)NCc3cccc(Cl)c3F)c(=O)c(O)c2C1=O` [Example 21, (1R,2R)—N-(3-chloro-2-fluorobenzyl)-9′-hydroxy-2′-isopropyl-2-(methylsulfonylmethyl)-1′,8′-dioxo-1′,2′,3′,8′-tetrahydrospiro[cyclopropane-1,4′-pyrido[1,2-a]pyrazine]-7′-carboxamide hydrochloride] showed a pEC50 of 7.32.
Regarding `CC(C)N1C[C@@]2(C[C@@H]2CO)n2cc(C(=O)NCc3ccc(F)cc3F)c(=O)c(O)c2C1=O` [Example 9, (1S,2S)—N-(2,4-difluorobenzyl)-9′-hydroxy-2-(hydroxymethyl)-2′-isopropyl-1′,8′-dioxo-1′,2′,3′,8′-tetrahydrospiro[cyclopropane-1,4′-pyrido[1,2-a]pyrazine]-7′-carboxamide hydrochloride], the negative-log EC50 (pEC50) under setting [4] was 8.25.
For `CCOC[C@H]1C[C@@]12CN(C)C(=O)c1c(O)c(=O)c(C(=O)NCc3ccc(OC)c(Cl)c3F)cn12` [Example T31, (1S,2S)-N-(3-chloro-2-fluoro-4-methoxybenzyl)-2-(ethoxymethyl)-9′-hydroxy-2′-methyl-1′,8′-dioxo-1′,2′,3′,8′-tetrahydrospiro[cyclopropane-1,4′-pyrido[1,2-a]pyrazine]-7′-carboxamide], the pEC50 under setting [3] is 7.92.
As to `CCN1C(=O)c2c(O)c(=O)c(C(=O)NCc3ccc(F)cc3F)cn2C[C@@]12C[C@@H]2COC` [Example T40, (1S,2S)-N-(2,4-difluorobenzyl)-2′-ethyl-9′-hydroxy-2-(methoxymethyl)-1′,8′-dioxo-1′,2′,4′,8′-tetrahydrospiro[cylcopropane-1,3′-pyrido[1,2-a]pyrazine]-7′-carboxamide hydrochloride], under setting [3], the negative-log EC50 (pEC50) was 8.72.
`COC[C@@H]1C[C@]12CN(C(C)C)C(=O)c1c(O)c(=O)c(C(=O)NCc3ccc(F)cc3F)cn12` [Example 12, (1R,2R)—N-(2,4-difluorobenzyl)-9′-hydroxy-2′-isopropyl-2-(methoxymethyl)-1′,8′-dioxo-1′,2′,3′,8′-tetrahydrospiro[cyclopropane-1,4′-pyrido[1,2-a]pyrazine]-7′-carboxamide hydrochloride] showed a pEC50 under setting [4] of 8.30.
With `COC[C@@H]1C[C@]12CN(C)C(=O)c1c(O)c(=O)c(C(=O)NCc3ccc(OC)c(Cl)c3F)cn12` [Example T36, (1R,2R)-N-(3-chloro-2-fluoro-4-methoxybenzyl)-9′-hydroxy-2-(methoxymethyl)-2′-methyl-1′,8′-dioxo-1′,2′,3′,8′-tetrahydrospiro[cyclopropane-1,4′-pyrido[1,2-a]pyrazine]-7′-carboxamide hydrochloride], the pEC50 under setting [1] is 8.00.
Regarding `CN1C[C@]2(C[C@@H](OCc3ccccc3)C2)n2cc(C(=O)NCc3ccc(F)cc3F)c(=O)c(O)c2C1=O` [Example S9, trans-3-(benzyloxy)-N-(2,4-difluorobenzyl)-9′-hydroxy-2′-methyl-1′,8′-dioxo-1′,2′,3′,8′-tetrahydrospiro[cyclobutane-1,4′-pyrido[1,2-a]pyrazine]-7′-carboxamide hydrochloride], the pEC50 under setting [2] is 8.28.
Turning to `CCN1C[C@]2(C[C@H](O)C2)n2cc(C(=O)NCc3ccc(F)cc3F)c(=O)c(O)c2C1=O` [Example S18, N-(2,4-difluorobenzyl)-2′-ethyl-cis-3,9′-dihydroxy-1′,8′-dioxo-1′,2′,3′,8′-tetrahydrospiro[cyclobutane-1,4′-pyrido[1,2-a]pyrazine]-7′-carboxamide hydrobromide], under setting [2], the pEC50 is 7.80.
`CCN1C[C@]2(C[C@H]2CO)n2cc(C(=O)NCc3ccc(F)cc3F)c(=O)c(O)c2C1=O` [Example T10, (1R,2R)-N-(2,4-difluorobenzyl)-2′-ethyl-9′-hydroxy-2-(hydroxymethyl)-1′,8′-dioxo-1′,2′,3′,8′-tetrahydrospiro[cyclopropane-1,4′-pyrido[1,2-a]pyrazine]-7′-carboxamide hydrochloride]: under setting [1], the pEC50 is 7.80.

Values taken from US10087178B2, “Substituted spiropyrido[1,2-a]pyrazine derivative and medicinal use thereof as HIV integrase inhibitor” (priority 2012, dated 2018).
